The record followed here is US20230348540A1, “Viral multimeric peptide constructs for targeting PDZ domains” (University of Copenhagen, priority 2020, published 2023).

Peptide text beside a SMILES is read from it. * marks the point of attachment. Biotin = O=C1N[C@H]2[C@H](CS[C@H]2CCCCC(=O)*)N1; Ahx = NCCCCCC(=O)O

Data set [1] deals with T1, PSD-95 PDZ12 (Homo sapiens, UniProt P78352).
T1 construct: Fluorescence polarization for PSD-95 (FL and PDZ12)
Put plainly: Fluorescence polarization for PSD-95 PDZ12 (Example 8). To be noted: in words, FIG. 18. In kind it is binding. The method, then: Fluorescence polarization for PSD-95 (FL and PDZ12): Fluorescence polarization was carried out in competition mode at a fixed concentration of protein (150 nM) and tracer (5[…], 5 nM), against an increasing concentration of unlabeled peptide.

Another data set deals with T2, FL-PSD-95 (Homo sapiens, UniProt P78352).
T2 construct: TRX-6xHis-hPSD95 1-724 encoding plasmid; TRX (thioredoxin) (N); 6xHis (N); made in house; host or cells: E. coli BL21-DE3-pLysS
Nature of the data set: Size exclusion chromatography of PSD-95 in absence or presence of peptide. To be noted: 10 μM FL-PSD-95, 50 μM peptide, Example 8. How it is done: (§1) Size exclusion chromatography: was done using a Äkta purifier with a Superdex200 Increase 10/300 column, where, 500 μL of 30 μM PICK1 or 200 μL 10 uM of FL-PSD-95 in absence or presence of peptides was loaded. Absorbance profile was measured at 280 nm and plotted against elution volume using Graph Pad Prism 8.3.

The target in data set [2] is T1, PSD-95 PDZ12. Nature of the data set: Confocal microscopy on liquid-liquid phase separation droplets, PSD-95 PDZ1-2 (Example 8). The settings on record: 100 μM PSD-95 PDZ1-2.
Experimental: Images were acquired using averaging of 4 line scans and 12-bit. The liquid-liquid phase separation droplets were prepared in the desired concentration in Phosphate buffered Saline supplemented with 1 mM TCEP (PBS-TCEP) and added to an untreated lab tec (155411PK) and imaged after being allowed to settle for 5 min at 25° C. For samples containing fluorescent protein or peptide the content of fluorescent protein or peptide was kept at 1% of indicated total protein or peptide concentration.
The target in data set [3] is T3, PICK1 (Rattus norvegicus, UniProt Q9EP80).
T3 construct: Full length rat PICK1 (pET41) was prepared as described earlier; inferred from pET41 and glutathione-Sepharose capture) (N, cleaved yes); made in house; host or cells: E. coli BL21-DE3-pLysS
Put plainly: Size exclusion chromatography of PICK1 in absence or presence of peptide. To be noted: 30 μM PICK1, 50 μM peptide, Example 8. How it is done: Absorbance profiles were measured at 280 nm and plotted against elution volume using Graph Pad Prism 8.3.
as §1

The nature of data set [4]: SEC-MALS of peptides (oligomeric state). To be noted: 50 μL of 1000 μM peptide, Example 7. Format: physicochemical. The method, then:
Size exclusion chromatography Multi angle light scattering (SEC-MALS): was done using an Agilent HPLC equipped with a Wyatt MALS setup, where 50 μL of 1000 μM, of indicated peptide, was loaded onto a Superdex200 Increase 10/300 column. Resulting data was analyzed and molecular weight was calculated using the ASTRA® software package, data was plotted using GraphPad Prism 8.3.

The target in the next data set is T4, PSD-95 (Homo sapiens, UniProt P78352).
T4 construct: TRX-6xHis-hPSD95 1-724 encoding plasmid; TRX (thioredoxin) (N); 6xHis (N); made in house; host or cells: E. coli BL21-DE3-pLysS
Put plainly: SDS-PAGE sedimentation assay. The settings on record: 3 μM PSD-95, 12 μM or 36 μM peptide.

In data set [5] the target is T3, PICK1. Nature of the data set: Fluorescence polarization competition of HWLKV substitution peptide libraries (Example 6). To be noted: relative to HWLKV, tracer 5FAM-HWLKV 20 nM, FIG. 7, in words. In kind it is binding. The method, then: Fluorescence polarization: Fluorescence polarization was carried out in competition mode at a fixed concentration of protein and tracer (5[…], 20 nM), against an increasing concentration of indicated unlabeled peptide. The plate was incubated 20 min on ice in a black half-area Corning Black non-binding surface 96-well plate and the fluorescence polarization was measured directly on a Omega POLARstar plate reader using excitation filter at 488-nm and long pass emission filter at 535-nm.

Data set [6] concerns the target T3, PICK1. Put plainly: Fluorescence Polarization for PICK1 (Example 8). Format: binding. To be noted: in words, FIG. 17. The method, then: The plates were incubated 30-40 min on ice and the fluorescence polarization was measured on an Omega POLARstar plate (BMG LABTECH) reader using excitation filter at 485 nm and long pass emission filter at 520 nm. The data was plotted using GraphPad Prism 8.3, and fitted to the ‘One site—Fit’ Ki competition curve, to extract apparent KI values.

T1 sequence (P78352 61-249 limits assumed): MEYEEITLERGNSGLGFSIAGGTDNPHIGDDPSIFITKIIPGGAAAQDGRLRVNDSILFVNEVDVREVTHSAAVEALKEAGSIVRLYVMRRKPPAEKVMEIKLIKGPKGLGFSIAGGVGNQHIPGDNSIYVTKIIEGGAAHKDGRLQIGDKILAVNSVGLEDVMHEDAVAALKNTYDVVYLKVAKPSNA
T3 sequence (Q9EP80 whole entry): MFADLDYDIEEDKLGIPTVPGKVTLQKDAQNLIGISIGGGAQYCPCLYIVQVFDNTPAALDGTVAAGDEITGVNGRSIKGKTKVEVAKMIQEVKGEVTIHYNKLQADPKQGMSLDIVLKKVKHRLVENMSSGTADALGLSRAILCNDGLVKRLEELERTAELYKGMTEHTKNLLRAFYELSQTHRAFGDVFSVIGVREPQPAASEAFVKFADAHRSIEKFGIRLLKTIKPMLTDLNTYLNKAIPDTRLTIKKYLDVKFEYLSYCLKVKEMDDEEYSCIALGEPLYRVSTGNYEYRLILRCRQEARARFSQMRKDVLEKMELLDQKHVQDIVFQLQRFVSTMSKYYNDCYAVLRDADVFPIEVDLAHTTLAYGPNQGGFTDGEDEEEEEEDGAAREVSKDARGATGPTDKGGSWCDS
T2 sequence (P78352 whole entry): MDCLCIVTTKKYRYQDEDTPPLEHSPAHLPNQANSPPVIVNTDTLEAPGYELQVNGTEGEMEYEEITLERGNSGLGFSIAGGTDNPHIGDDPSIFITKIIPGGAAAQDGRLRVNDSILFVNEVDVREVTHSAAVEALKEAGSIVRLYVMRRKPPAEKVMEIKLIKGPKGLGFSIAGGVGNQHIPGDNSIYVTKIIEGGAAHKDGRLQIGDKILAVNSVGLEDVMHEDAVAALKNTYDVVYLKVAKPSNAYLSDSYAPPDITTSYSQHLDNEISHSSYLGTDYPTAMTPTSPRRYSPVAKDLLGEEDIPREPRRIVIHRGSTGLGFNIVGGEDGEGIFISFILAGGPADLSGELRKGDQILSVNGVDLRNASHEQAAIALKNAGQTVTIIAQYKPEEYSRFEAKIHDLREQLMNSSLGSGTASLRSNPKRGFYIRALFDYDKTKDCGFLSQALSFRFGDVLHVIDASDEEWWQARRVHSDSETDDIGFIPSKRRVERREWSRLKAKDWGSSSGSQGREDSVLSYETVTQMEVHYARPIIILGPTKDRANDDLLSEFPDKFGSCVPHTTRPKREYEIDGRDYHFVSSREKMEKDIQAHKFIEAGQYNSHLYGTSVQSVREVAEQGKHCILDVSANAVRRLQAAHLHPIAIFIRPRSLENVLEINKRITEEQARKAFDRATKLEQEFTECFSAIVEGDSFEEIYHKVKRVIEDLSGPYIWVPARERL
T4 sequence (P78352 whole entry): as above

Consider `CC[C@H](C)[C@H](NC(=O)[C@H](CCC(=O)O)NC(=O)CNC(=O)CCCCCNC(=O)CCCC[C@@H]1SC[C@@H]2NC(=O)N[C@@H]21)C(=O)N[C@@H](C)C(=O)N[C@@H](CCCCN)C(=O)N[C@@H](CO)C(=O)N[C@@H](CC(C)C)C(=O)N[C@@H](CCCCN)C(=O)N[C@@H](CCC(=O)O)C(=O)N[C@H](C(=O)N[C@@H](C)C(=O)N[C@@H](CCCCN)C(=O)N[C@@H](CO)C(=O)N[C@@H](CC(C)C)C(=O)N[C@@H](CCCCN)C(=O)N[C@@H](CCC(=O)O)C(=O)N[C@H](C(=O)N[C@@H](C)C(=O)N[C@@H](Cc1c[nH]c2ccccc12)C(=O)N[C@@H](CO)C(=O)N[C@@H](CC(C)C)C(=O)N[C@@H](CCCCN)C(=O)N[C@@H](CCC(=O)O)C(=O)N[C@H](C(=O)N[C@@H](C)C(=O)N[C@@H](CCCCN)C(=O)N[C@@H](CO)C(=O)N[C@@H](CC(C)C)C(=O)N[C@@H](CCCCN)C(=O)NCC(=O)NCC(=O)NCC(=O)NCC(=O)N[C@@H](CO)C(=O)N[C@@H](CCCNC(=N)N)C(=O)N[C@@H](CCCNC(=N)N)C(=O)N[C@H](C(=O)N[C@H](C(=O)N1CCC[C@H]1C(=O)N[C@H](C(=O)O)C(C)C)[C@@H](C)O)[C@@H](C)O)[C@@H](C)CC)[C@@H](C)CC)[C@@H](C)CC` [CC-Hex2-GS4-RRTTPV] ({Biotin-Ahx}-GEIAKSLKEIAKSLKEIAWSLKEIAKSLKGGGGSRRTTPV-OH; C-terminus assumed), for which, at PSD-95 PDZ12 [1], the “binding affinity towards PSD95 PDZ1-2” value is recorded as “high binding affinity”. Besides, on FL-PSD-95, the “formation of higher order oligomers of PSD-95 (SEC)” value is reported as “Formation of higher order oligomers of PSD-95 was also observed”. On PSD-95 PDZ12 [2], the “threshold for LLPS formation of PSD-95 PDZ1-2 versus dimeric GCN4p1-GS4-RRTTPV” value is recorded as “lowered thresholds for LLPS formation”. Take `CC[C@H](C)[C@H](NC(=O)[C@H](C)NC(=O)[C@H](C)NC(=O)[C@H](CC(C)C)NC(=O)[C@H](CCC(=O)O)NC(=O)[C@H](Cc1c[nH]c2ccccc12)NC(=O)[C@H](CCCCN)NC(=O)[C@@H](NC(=O)[C@H](C)NC(=O)[C@H](C)NC(=O)[C@H](CC(C)C)NC(=O)[C@H](CCC(=O)O)NC(=O)[C@H](CCCCN)NC(=O)[C@H](CCCCN)NC(=O)[C@@H](NC(=O)[C@H](C)NC(=O)[C@H](C)NC(=O)[C@H](CC(C)C)NC(=O)[C@H](CCC(=O)O)NC(=O)[C@H](CCC(N)=O)NC(=O)[C@H](CCCCN)NC(=O)[C@@H](NC(=O)[C@H](C)NC(=O)[C@H](C)NC(=O)[C@H](CC(C)C)NC(=O)[C@H](CCC(=O)O)NC(=O)CNC(=O)CCCCCNC(=O)CCCC[C@@H]1SC[C@@H]2NC(=O)N[C@@H]21)[C@@H](C)CC)[C@@H](C)CC)[C@@H](C)CC)C(=O)N[C@@H](CCCCN)C(=O)N[C@@H](CCC(N)=O)C(=O)NCC(=O)NCC(=O)NCC(=O)NCC(=O)N[C@@H](CO)C(=O)N[C@@H](Cc1c[nH]cn1)C(=O)N[C@@H](Cc1c[nH]c2ccccc12)C(=O)N[C@@H](CC(C)C)C(=O)N[C@@H](CCCCN)C(=O)N[C@H](C(=O)O)C(C)C` [CC-Tet-GS4-HWLKV] ({Biotin-Ahx}-GELAAIKQELAAIKKELAAIKWELAAIKQGGGGSHWLKV-OH; C-terminus assumed): the “formation of higher order oligomers of PICK1 (SEC)” value on PICK1 [3] is recorded as “ability to form higher order oligomers of PICK1”. The “oligomeric configuration (SEC-MALS)” value in data set [4] is “trimeric configuration”. Turning to SNTANRRTTPV (RRTTPV monomer), the “distribution of PSD-95 between supernatant and pellet” value with PSD-95 is recorded as “the majority of PSD-95 is found in the supernatant”. Take YIIV (DAT C5 VARIANT): in the data set with PICK1 [5], the “Fold affinity change of combinatorial peptide library” value (from here on “Fold affinity change”) is “optimal 4-mer sequences”. With `CC[C@H](C)[C@H](NC(=O)[C@H](CCC(=O)O)NC(=O)CNC(=O)CCCCCNC(=O)CCCC[C@@H]1SC[C@@H]2NC(=O)N[C@@H]21)C(=O)N[C@@H](C)C(=O)N[C@@H](CCCCN)C(=O)N[C@@H](CO)C(=O)N[C@@H](CC(C)C)C(=O)N[C@@H](CCCCN)C(=O)N[C@@H](CCC(=O)O)C(=O)N[C@H](C(=O)N[C@@H](C)C(=O)N[C@@H](CCCCN)C(=O)N[C@@H](CO)C(=O)N[C@@H](CC(C)C)C(=O)N[C@@H](CCCCN)C(=O)N[C@@H](CCC(=O)O)C(=O)N[C@H](C(=O)N[C@@H](C)C(=O)N[C@@H](Cc1c[nH]c2ccccc12)C(=O)N[C@@H](CO)C(=O)N[C@@H](CC(C)C)C(=O)N[C@@H](CCCCN)C(=O)N[C@@H](CCC(=O)O)C(=O)N[C@H](C(=O)N[C@@H](C)C(=O)N[C@@H](CCCCN)C(=O)N[C@@H](CO)C(=O)N[C@@H](CC(C)C)C(=O)N[C@@H](CCCCN)C(=O)NCC(=O)NCC(=O)NCC(=O)NCC(=O)N[C@@H](CO)C(=O)N[C@H](C(=O)N[C@@H](CCC(=O)O)C(=O)N[C@H](C(=O)N[C@@H](CC(=O)O)C(=O)N[C@H](C(=O)O)C(C)C)[C@@H](C)O)[C@@H](C)CC)[C@@H](C)CC)[C@@H](C)CC)[C@@H](C)CC` [CC-Hex2-GS4-IETDV] ({Biotin-Ahx}-GEIAKSLKEIAKSLKEIAWSLKEIAKSLKGGGGSIETDV-OH; C-terminus assumed), the “binding affinity towards PSD95 PDZ1-2” value on PSD-95 PDZ12 [1] was “high binding affinity”. Also, the “formation of higher order oligomers of PSD-95 (SEC)” value on FL-PSD-95 is “ability to form higher order oligomers of PSD-95”. Consider TSIRV (DAT C5 VARIANT), for which the “Fold affinity change” value with PICK1 [5] is listed as “optimal 5-mer sequences”. For IRV [DAT-C5 variant], in the data set with PICK1 [5], the “Fold affinity change” value was “optimal 3-mer sequences”. For the compound “GEIAKSLKEIAKSLKEIAWSLKEIAKSLKGGGGSNSVRV (CC-Hex2-GS4-NSVRV)”, the “binding affinity to PICK1 as compared to the dimeric GCN4p1-GS4-HWLKV” value with PICK1 [6] is “superior binding affinity”. For the compound EIRV (DAT C5 VARIANT), in the data set with PICK1 [5], the “Fold affinity change” value is on record as “optimal 4-mer sequences”.

On to `CC[C@H](C)[C@H](NC(=O)[C@H](CCC(=O)O)NC(=O)CNC(=O)CCCCCNC(=O)CCCC[C@@H]1SC[C@@H]2NC(=O)N[C@@H]21)C(=O)N[C@@H](C)C(=O)N[C@@H](CCCCN)C(=O)N[C@@H](CO)C(=O)N[C@@H](CC(C)C)C(=O)N[C@@H](CCCCN)C(=O)N[C@@H](CCC(=O)O)C(=O)N[C@H](C(=O)N[C@@H](C)C(=O)N[C@@H](CCCCN)C(=O)N[C@@H](CO)C(=O)N[C@@H](CC(C)C)C(=O)N[C@@H](CCCCN)C(=O)N[C@@H](CCC(=O)O)C(=O)N[C@H](C(=O)N[C@@H](C)C(=O)N[C@@H](Cc1c[nH]c2ccccc12)C(=O)N[C@@H](CO)C(=O)N[C@@H](CC(C)C)C(=O)N[C@@H](CCCCN)C(=O)N[C@@H](CCC(=O)O)C(=O)N[C@H](C(=O)N[C@@H](C)C(=O)N[C@@H](CCCCN)C(=O)N[C@@H](CO)C(=O)N[C@@H](CC(C)C)C(=O)N[C@@H](CCCCN)C(=O)NCC(=O)NCC(=O)NCC(=O)NCC(=O)N[C@@H](CO)C(=O)N[C@@H](Cc1c[nH]cn1)C(=O)N[C@@H](Cc1c[nH]c2ccccc12)C(=O)N[C@@H](CC(C)C)C(=O)N[C@@H](CCCCN)C(=O)N[C@H](C(=O)O)C(C)C)[C@@H](C)CC)[C@@H](C)CC)[C@@H](C)CC` [CC-Hex2-GS4-HWLKV] ({Biotin-Ahx}-GEIAKSLKEIAKSLKEIAWSLKEIAKSLKGGGGSHWLKV-OH; C-terminus assumed), for which the “binding affinity to PICK1 as compared to the dimeric GCN4p1-GS4-HWLKV” value on PICK1 [6] is given as “superior binding affinity”. Further, the “oligomeric configuration (SEC-MALS)” value in data set [4] is “hexameric configuration”. Turning to NSVRV (DAT C5 VARIANT), the “Fold affinity change” value in the data set with PICK1 [5] is recorded as “optimal 5-mer sequences”.

Regarding IIV [DAT-C5 variant], in the data set with PICK1 [5], the “Fold affinity change” value was “optimal 3-mer sequences”.
